Laboratory results: patent US7314864B1, “Humanin, a polypeptide suppressing neuronal death” (Keio University, priority 1999, dated 2008)
“Also recorded” adds a separate entry of the source. No end group written: not given here.

Key:
[1] = test system: F11 cells transfected with V642I APP cDNA; test: V642I APP-induced F11 cell death, trypan blue exclusion assay; format: cell-based; details: for cell mortality (%): V642I APP cDNA, treated with 10 μM sHN polypeptides, 72 hours, mean ±S.D.
Procedure: (§1) F11 cells (Platika, D. et al. (1985) Proc. Natl. Acad. Sci. U.S.A. 82, 3499-3503; Yamatsuji, T. et al. (1996) Science 272, 1349-1352) were cultured in HamF-12 media containing 18% fetal bovine serum (FBS) and antibiotics. 7×10^4/well of F11 cells were seeded into a 6-well plate; cultured in HamF-12 containing 18% FBS for 12 to 16 hours; transfected 3 hours with plasmids encoding FAD genes and plasmids encoding HN (pHN, and such) by lipofection in the absence of serum (1 μg of FAD cDNA expression plasmid, 1 μg of HN cDNA expression plasmid, 4 μl of LipofectAMINE, 8 μl of Plus reagent); and then, were cultured for 2 hours in HamF-12 media containing 18% FBS. Then, culture media were exchanged with HamF-12 media containing 10% FBS; and the cells were cultured for additional 67 hours. 72 hours after transfection, cell death was measured by trypan blue exclusion assay. Experiments using synthetic HN polypeptides were conducted as follows: F11 cells (at 7×10^4/well in a 6-well plate) were transfected 3 hours with FAD genes in the absence of serum, as mentioned above; after cultivation for 2 hours in HamF-12 media containing 18% FBS, the cells were cultured for 67 hours in HamF-12 media containing 10% FBS with various concentrations of HN polypeptides; and cell death was measured by trypan blue exclusion assay. ALS-associated mutant cDNAs of SOD1 were also similarly transfected, and examined for their neurotoxicity.
(§2) Trypan blue exclusion assay was performed as follows. Without prewashing, the cells were suspended with gentle pipetting into a serum-free media. 50 μl of 0.4% trypan blue solution (Sigma, Cat. #T-8154) were added (final concentration of 0.08%) to 200 μl cell suspension, and the suspension was mixed at room temperature. Within 3 minutes of the trypan blue solution addition, stained cells were counted. Cell mortality was determined [100-cell survival rate (%)] based on the stained cell count. LDH assay was performed using a kit (LDH-Cytotoxic Test; Wako Pure Chemical Industries, Cat. #299-50601) by sampling 6 μl of media in which neurons were cultured. Calcein staining was performed as described in literature (Bozyczko-Coyne, D. et al. (1993) Journal of Neuroscience Methods 50, 205-216). Specifically, 6 μM Calcein-AM (3′, 6′-Di-(O-acetyl)-2′-7′-bis[N,N-bis(carboxymethyl)aminomethyl]fluorescein, tetraacetoxymethyl ester; Dojindo, Cat. #349-07201) was added to the neurons; and 30 minutes or longer after Calcein-AM treatment, fluorescence (ex=490 nm, em=515 nm) was observed by fluorescence microscopy, and measured by a spectrometer. Specific fluorescence was calculated by subtracting basal fluorescence from total fluorescence. Basal fluorescence was assigned to be the value calculated from linear trypan blue positivity-fluorescence intensity relationship, corresponding to 100% trypan blue positivity.

[2] = test system: F11 cells transfected with FAD genes (V642I APP, NL-APP, M146L PS-1, N141I PS-2); test: FAD gene-induced F11 cell death, trypan blue exclusion assay; format: cell-based, rat/mouse hybrid; details: for suppression of FAD gene-induced cell death: 10 nM polypeptide; for neuroprotective activity relative to HNG: all types of cell death (FAD genes, Aβ)
Procedure: as §1, §2

[3] = test system: primary cultured cortical neurons treated with Aβ1-43; test: Aβ1-43-induced cell death of primary cultured cortical neurons, trypan blue exclusion assay; format: cell-based; details: for effect on Aβ1-43-induced cell death: 25 μM Aβ1-43, confirmed by LDH release and Calcein staining; for cell mortality: mean ±S.D.
Procedure: Primary culture of mouse cortical neurons was performed in poly-D-lysine-coated 24-well plates (Sumitomo Bakelite) in the absence of serum and in the presence of N2 supplement, as described in literature (Ecksioglu, Y. Z. et al. (1994) Brain Res. 644, 282-90). The purity of neurons prepared according to the method was >98%. The prepared neurons (1.25×10^5/well, 250 μl media/well) were preincubated in the absence or presence of 10 nM or 10 μM sHN polypeptides for 16 hours; and were treated with 25 μM Aβ1-43 in the absence or presence of sHN polypeptides at the same concentrations for 24 to 72 hours. Since primary cultured neurons are damaged even by temporary dryness during medium exchange, treatment of the cells by Aβ1-43 was performed as follows. First, half of the volume of the old medium (125 μl) was discarded. Then, 125 μl of pre-warmed fresh medium containing 50 μM Aβ1-43 and sHN with a concentration indicated above were added to the culture.
as §2

[4] = test system: primary cultured cortical neurons treated with Aβ1-43; test: Aβ1-43-induced cell damage of primary cultured cortical neurons, LDH release; format: cell-based, mouse; details: 25 μM Aβ1-43; 10 μM polypeptide
Procedure: Primary culture of mouse cortical neurons was performed in poly-D-lysine-coated 24-well plates (Sumitomo Bakelite) in the absence of serum and in the presence of N2 supplement, as described in literature (Ecksioglu, Y. Z. et al. (1994) Brain Res. 644, 282-90). The purity of neurons prepared according to the method was >98%. The prepared neurons (1.25×10^5/well, 250 μl media/well) were preincubated in the absence or presence of 10 nM or 10 μM sHN polypeptides for 16 hours; and were treated with 25 μM Aβ1-43 in the absence or presence of sHN polypeptides at the same concentrations for 24 to 72 hours. […]
(§3) Trypan blue exclusion assay was performed as follows. […] Within 3 minutes of the trypan blue solution addition, stained cells were counted. Cell mortality was determined [100-cell survival rate (%)] based on the stained cell count. […] Specifically, 6 μM Calcein-AM (3′, 6′-Di-(O-acetyl)-2′-7′-bis[N,N-bis(carboxymethyl)aminomethyl]fluorescein, tetraacetoxymethyl ester; Dojindo, Cat. #349-07201) was added to the neurons; and 30 minutes or longer after Calcein-AM treatment, fluorescence (ex=490 nm, em=515 nm) was observed by fluorescence microscopy, and measured by a spectrometer. Specific fluorescence was calculated by subtracting basal fluorescence from total fluorescence. […]

[5] = test system: primary cultured neurons treated with etoposide; test: Etoposide toxicity on primary cultured neurons; format: cell-based, mouse; details: 20 μM etoposide; 10 μM polypeptide
Procedure: 25 μM Aβ1-43 was added to primary cultured cortical neurons in the presence (at indicated concentrations) or absence of sHN, sHNG, or sHNA. Addition of HN polypeptides was performed similarly to that described in FIG. 14. 72 hours after the initiation of Aβ treatment, cell death was measured by trypan blue exclusion assay. Primary cultured neurons treated similarly for 72 hours with 20 μM etoposide in the presence or absence of 10 μM sHN or HN derivatives were used as the positive controls in these experiments. Similar experiments were performed at least three times, and reproducible results were obtained. Mean ±S.D. values of three independent experiments are indicated in the graphs. […]
as §3

[6] = test system: F11/EcR cells transfected with ecdysone-inducible Q79 plasmid; test: Polyglutamine Q79-induced F11/EcR cell death (ecdysone-inducible), trypan blue exclusion assay; format: cell-based; details: 1 μM polypeptide, 72 hours
Procedure: F11/EcR cell experiment using ecdysone was conducted as follows: F11/EcR cells were seeded at 7×10^4/well into a 6-well plate; cultured for 12 to 16 hours in HamF-12 media containing 18% FBS; and were similarly transfected in the absence of serum for 3 hours with 1 μg of ecdysone-inducible plasmid alone, or with 1 μg of HN-encoding plasmid, as mentioned above. After culturing for 12 to 16 hours in HamF-12 media containing 18% FBS, the cells were cultured for 2 hours in HamF-12 media containing 10% FBS, then ecdysone (Ponasterone) was added to the media (final concentration of 40 μM). Cell death was measured 72 hours after ecdysone treatment. Experiments using synthetic HN polypeptides were conducted as follows: cells were similarly transfected for 3 hours with FAD genes in the absence of serum; cultured for 12 to 16 hours in HamF-12 media containing 18% FBS; cultured for 2 hours in HamF-12 media containing 10% FBS and various concentrations of HN polypeptide; and then, 40 μM Ponasterone was added to the media. Cell death was measured by trypan blue exclusion assay after 72 hours from the ecdysone treatment. HD/SCA-associated Q79 cDNAs were also similarly transfected, and the neurotoxicity was tested.
Trypan blue exclusion assay was performed as follows. […] Within 3 minutes of the trypan blue solution addition, stained cells were counted. Cell mortality was determined [100-cell survival rate (%)] based on the stained cell count. […] Specifically, 6 μM Calcein-AM (3′, 6′-Di-(O-acetyl)-2′-7′-bis[N,N-bis(carboxymethyl)aminomethyl]fluorescein, tetraacetoxymethyl ester; Dojindo, Cat. #349-07201) was added to the neurons; and 30 minutes or longer after Calcein-AM treatment, fluorescence (ex=490 nm, em=515 nm) was observed by fluorescence microscopy, and measured by a spectrometer. Specific fluorescence was calculated by subtracting basal fluorescence from total fluorescence. Basal fluorescence was assigned to be the value calculated from linear trypan blue positivity-fluorescence intensity relationship, corresponding to 100% trypan blue positivity.

[7] = test system: F11 cells transfected with SOD1 mutants (A4T, G85R, G93A); test: ALS-associated SOD1 mutant-induced F11 cell death, trypan blue exclusion assay; format: cell-based, rat/mouse hybrid; details: 100 μM polypeptide
Procedure: as §1, §3

[8] = test system: F11/EcR cells transfected with ecdysone-inducible FAD gene plasmid; test: Ecdysone-induced FAD gene expression F11/EcR cell death, trypan blue exclusion assay; format: cell-based; details: 1 μM; NL-APP, V642I APP, M146L PS-1, N141I PS-2; ecdysone 72 hours
Procedure: F11/EcR cell experiment using ecdysone was conducted as follows: F11/EcR cells were seeded at 7×10^4/well into a 6-well plate; cultured for 12 to 16 hours in HamF-12 media containing 18% FBS; and were similarly transfected in the absence of serum for 3 hours with 1 μg of ecdysone-inducible plasmid alone, or with 1 μg of HN-encoding plasmid, as mentioned above. After culturing for 12 to 16 hours in HamF-12 media containing 18% FBS, the cells were cultured for 2 hours in HamF-12 media containing 10% FBS, then ecdysone (Ponasterone) was added to the media (final concentration of 40 μM). Cell death was measured 72 hours after ecdysone treatment. […] Cell death was measured by trypan blue exclusion assay after 72 hours from the ecdysone treatment. […]
as §3, with “spectrometer.” for “spectrometer. Specific fluorescence was calculated by subtracting basal fluorescence from total fluorescence.”

[9] = 25 μM Aβ1-43, 72 hours, 10 nM polypeptide

## MAPRGFSCRLLLTSEIDLPVKRRA [sHNR]
[1]
  cell mortality (%): 17.7 ± 2.2 %

## SEQ ID NO: 46: HNG with Cys at position 8 substituted with His (MAPRGFSHLLLLTGEIDLPVKRRA)
[1]; 10 nM polypeptide
  suppression of V642I APP-induced cell death: significant suppression activity
[2]
  suppression of FAD gene-induced cell death: inhibited neuronal death
  neuroprotective activity relative to HNG: slight decrease in the cell death suppression activity
[3]; 10 nM polypeptide
  effect on Aβ1-43-induced cell death: suppressed cell death

## ARGFSCLLLLTGEIDLP [SEQ ID NO: 25, ARGFSCLLLLTGEIDLP]
[3]; [9]
  cell mortality: 75.3±4.4%

## CC[C@H](C)[C@H](NC(=O)[C@H](CCC(=O)O)NC(=O)[C@H](CO)NC(=O)[C@@H](NC(=O)[C@H](CC(C)C)NC(=O)[C@H](CC(C)C)NC(=O)[C@H](CC(C)C)NC(=O)[C@H](CC(C)C)NC(=O)[C@H](CS)NC(=O)[C@H](CO)NC(=O)[C@H](Cc1ccccc1)NC(=O)CNC(=O)[C@H](CCCNC(=N)N)NC(=O)[C@@H]1CCCN1C(=O)[C@H](C)NC(=O)[C@@H](N)CCSC)[C@@H](C)O)C(=O)N[C@@H](CC(=O)O)C(=O)N[C@@H](CC(C)C)C(=O)N1CCC[C@H]1C(=O)N[C@H](C(=O)N[C@@H](CCCCN)C(=O)N[C@@H](CCCNC(=N)N)C(=O)N[C@@H](CCCNC(=N)N)C(=O)N[C@@H](C)C(=O)O)C(C)C [sHN]
[1]; 10 nM polypeptide
  suppression of V642I APP-induced cell death: extremely weak suppression
[1]; 10 μM polypeptide
  suppression of V642I APP-induced cell death: dramatically suppressed
[1]; 72 h
  IC50: ~0.1 µM
[1]
  cell mortality (%): 14.4 ± 1.2 %
[2]; NL-APP, M146L PS-1, N141I PS-2
  concentration blocking neuronal death induced by the FAD genes: 1 µM
[2]; chemically synthesized polypeptide
  extracellular concentration at which neuronal death is suppressed: ≥ 10 nM
[2]; four types of AD genes, listed as Humanin
  concentration of maximal (saturation) suppression of neuronal death: about 10 μM
[3]; 10 nM polypeptide
  effect on Aβ1-43-induced cell death: did not show any effect
[3]; 10 μM polypeptide
  effect on Aβ1-43-induced cell death: completely restored to a level observed under basal conditions
[4]
  effect on cell damage (LDH released) by Aβ1-43: completely restored to a level observed under basal conditions
[5]
  effect on toxic effect of etoposide: could not prevent
[6]
  effect on Q79-induced cell death, synthetic polypeptide: Extensive cell death
[7]
  effect on SOD1 mutant-induced cell death, synthetic polypeptide: couldn't be suppressed
[8]
  effect on cell death by ecdysone-induced FAD genes, synthetic polypeptide: significant suppressive effect

## PRGFSCLLLLTGEIDLP [HNG-17]
[2]
  suppression of FAD gene-induced cell death: completely antagonize
[3]; [9]
  cell mortality: 28.8±2.3%
[3]; 10 nM polypeptide
  effect on Aβ1-43-induced cell death: completely antagonize

## AGA-HNG: HNG (S14G HN) mutated at two positions, R4A/F6A (MAPAGASCLLLLTGEIDLPVKRRA; artificially synthesized sequence (AGA-HN))
[2]
  concentration showing significant or sufficient neuroprotective action: about 1 nM
  neuroprotective activity relative to HNG: higher rescue activity compared to HNG; also recorded: several folds higher
[2]; all four types of FAD genes
  concentration giving complete antagonism/rescue of neuronal death: 0.1 nM
[3]; 25 μM Aβ1-43, 72 hours
  concentration giving complete rescue of cell death by Aβ: 0.3 nM
